According to patent publication US20220088146A1, “Melanocortin Receptor-Specific Peptide Formulations and Methods for Gastrointestinal Tract-Specific Delivery” (Palatin Technologies, Inc., priority 2018, published 2022):
Bridge positions count the residues as written; N and C are the ends. Square brackets hold non-standard residues; d marks the D form. Peptide text beside a SMILES is read from it. dPhe(3,4-F2) = N[C@H](Cc1ccc(F)c(F)c1)C(=O)O; dPhe(3-Cl) = N[C@H](Cc1cccc(Cl)c1)C(=O)O; dPhe(4-Me) = Cc1ccc(C[C@@H](N)C(=O)O)cc1; dPhe(4-F) = N[C@H](Cc1ccc(F)cc1)C(=O)O; dPhe(2-F) = N[C@H](Cc1ccccc1F)C(=O)O; Nle = CCCC[C@H](N)C(=O)O; Orn = NCCC[C@H](N)C(=O)O; Dab = NCC[C@H](N)C(=O)O; Dap = NC[C@H](N)C(=O)O

Target: hMC1r (Homo sapiens, UniProt Q01726)
Sequence (Q01726 whole entry): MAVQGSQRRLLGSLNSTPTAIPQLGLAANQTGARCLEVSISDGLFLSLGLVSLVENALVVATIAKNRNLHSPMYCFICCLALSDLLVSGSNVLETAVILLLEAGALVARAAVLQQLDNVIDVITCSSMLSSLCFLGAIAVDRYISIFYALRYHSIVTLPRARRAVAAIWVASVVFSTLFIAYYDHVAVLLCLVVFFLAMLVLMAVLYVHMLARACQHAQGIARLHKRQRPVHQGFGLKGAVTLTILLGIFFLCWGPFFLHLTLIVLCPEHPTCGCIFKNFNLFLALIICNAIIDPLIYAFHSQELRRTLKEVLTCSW
Experiment: Assay for agonist activity: cAMP accumulation in HBL melanoma cells
Assay type: cell-based
Parameters: endogenous in cells; host or cells: HBL human melanoma cells
Conditions: HBL, compared to NDP-α-MSH as 100%, read-out: MC-1 Emax (average; cAMP HBL)
Method: 8.2 Assay for Agonist Activity.
Confluent HBL cells that express hMC1r or HEK-293 cells that express recombinant hMC4r were detached from culture plates by incubation in enzyme-free cell dissociation buffer. Dispersed cells were suspended in Earle's Balanced Salt Solution containing 10 mM HEPES (pH 7.5), 1 mM MgCl2, 1 mM glutamine, 0.5% albumin and 0.3 mM 3-isobutyl-1-methyl-xanthine (IBMX), a phosphodiesterase inhibitor. The cells were plated in 96-well plates at a density of 0.4×10^5 cells per well for HBL cells and 0.5×10^5 cells per well for HEK-293 cells and pre-incubated for 10 minutes. Cells were exposed for 15 minutes at 37° C. to peptides of the present invention dissolved in DMSO (final DMSO concentration of 1%) at a concentration range of 0.05-5000 nM in a total assay volume of 200 μL. […] Data analysis was performed by nonlinear regression analysis with Graph-Pad Prism® software.
All results are expressed in nM except for Emax values, which are percentage values. Peptides with the captioned primary sequence were synthesized and purified as described in Section 7 above, with the resulting peptide having the structure depicted.

| Compound | Emax [%] |
| --- | --- |
| CCCC[C@H](NC(C)=O)C(=O)N[C@H]1CCC(=O)NCC[C@@H](C(=O)N[C@H](Cc2c[nH]c3ccccc23)C(N)=O)NC(=O)[C@H](CCCNC(=N)N)NC(=O)[C@@H](Cc2ccccc2)NC(=O)[C@H](Cc2c[nH]cn2)NC1=O [Example 9.7, Ac-Nle-cyclo(Glu-His-D-Phe-Arg-Dab)-D-Trp-NH2] | 93 |
| N=C(N)NCCC[C@@H]1NC(=O)[C@@H](Cc2ccccc2)NC(=O)[C@H](Cc2c[nH]cn2)NC(=O)[C@@H](NC(=O)CC2CCCCC2)CCC(=O)NCC[C@@H](C(=O)N[C@@H](Cc2c[nH]c3ccccc23)C(N)=O)NC1=O [Example 9.22, cyclohexyl acetyl-cyclo(Glu-His-D-Phe-Arg-Dab)-Trp-NH2] | 85 |
| CCCC[C@H](NC(C)=O)C(=O)N[C@H]1CCC(=O)NCC[C@@H](C(=O)N[C@@H](Cc2cccc3ccccc23)C(N)=O)NC(=O)[C@H](CCCNC(=N)N)NC(=O)[C@@H](Cc2ccccc2)NC(=O)[C@H](Cc2c[nH]cn2)NC1=O [Example 9.30, Ac-Nle-cyclo(Glu-His-D-Phe-Arg-Dab)-Nal 1-NH2] | 72 |
| CCCC[C@H](NC(C)=O)C(=O)N[C@H]1CCC(=O)NCC[C@@H](C(N)=O)NC(=O)[C@H](CCCNC(=N)N)NC(=O)[C@@H](Cc2ccc(F)c(F)c2)NC(=O)[C@H](CCCN)NC1=O [Example 9.62, Ac-Nle-cyclo(Glu-Orn-D-Phe(3,4-F)-Arg-Dab)-NH2] (Ac-[Nle]E[Orn][dPhe(3,4-F2)]R[Dab]-NH2; lactam 2-6) | 97 |
| CCCC[C@H](NC(C)=O)C(=O)N[C@H]1CCC(=O)NCC[C@@H](C(=O)N[C@@H](Cc2c[nH]c3ccccc23)C(N)=O)NC(=O)[C@H](CCCNC(=N)N)NC(=O)[C@@H](Cc2ccccc2)NC(=O)[C@H](CCCN)NC1=O [Example 9.42, Ac-Nle-cyclo(Glu-Orn-D-Phe-Arg-Dab)-Trp-NH2] | 109 |
| CCCC[C@H](NC(C)=O)C(=O)N[C@H]1CCC(=O)NCC[C@@H](C(=O)N[C@@H](Cc2c[nH]c3ccccc23)C(N)=O)NC(=O)[C@H](CCCNC(=N)N)NC(=O)[C@@H](Cc2ccccc2)NC(=O)[C@H](Cc2c[nH]cn2)NC1=O [Example 9.2, Ac-Nle-cyclo(Glu-His-D-Phe-Arg-Dab)-Trp-NH2] | 95 |
| CCCC[C@H](NC(C)=O)C(=O)N[C@H]1CCC(=O)NCC[C@@H](C(=O)N[C@@H](Cc2c[nH]c3ccccc23)C(N)=O)NC(=O)[C@H](CCCNC(=N)N)NC(=O)[C@@H](Cc2ccccc2)NC(=O)[C@H](CCCNC(=N)N)NC1=O [Example 9.37, Ac-Nle-cyclo(Glu-Arg-D-Phe-Arg-Dab)-Trp-NH2] | 100 |
| CCCC(=O)N[C@H]1CCC(=O)NCC[C@@H](C(=O)N[C@@H](Cc2c[nH]c3ccccc23)C(N)=O)NC(=O)[C@H](CCCNC(=N)N)NC(=O)[C@@H](Cc2ccccc2)NC(=O)[C@H](Cc2c[nH]cn2)NC1=O [Example 9.15, CH3—(CH2)2—C(═O)-cyclo(Glu-His-D-Phe-Arg-Dab)-Trp-NH2] | 91 |
| CCCC[C@H](NC(C)=O)C(=O)N[C@H]1CCC(=O)NCC[C@@H](C(N)=O)NC(=O)[C@H](CCCNC(=N)N)NC(=O)[C@@H](Cc2ccccc2F)NC(=O)[C@H](CCCN)NC1=O [Example 9.60, Ac-Nle-cyclo(Glu-Orn-D-Phe(2-F)-Arg-Dab)-NH2] (Ac-[Nle]E[Orn][dPhe(2-F)]R[Dab]-NH2; lactam 2-6) | 95 |
| CCCC[C@H](NC(C)=O)C(=O)N[C@H]1CCC(=O)NCC[C@@H](C(=O)N[C@@H](C)C(N)=O)NC(=O)[C@H](CCCNC(=N)N)NC(=O)[C@@H](Cc2ccccc2)NC(=O)[C@H](Cc2c[nH]cn2)NC1=O [Example 9.25, Ac-Nle-cyclo(Glu-His-D-Phe-Arg-Dab)-Ala-NH2] (Ac-[Nle]EH[dF]R[Dab]A-NH2; lactam 2-6) | 97 |
| CCCCCC(=O)N[C@H]1CCC(=O)NCC[C@@H](C(=O)N[C@@H](Cc2c[nH]c3ccccc23)C(N)=O)NC(=O)[C@H](CCCNC(=N)N)NC(=O)[C@@H](Cc2ccccc2)NC(=O)[C@H](Cc2c[nH]cn2)NC1=O [Example 9.17, CH3—(CH2)4—C(═O)-cyclo(Glu-His-D-Phe-Arg-Dab)-Trp-NH2] | 90 |
| CCCC[C@H](NC(C)=O)C(=O)N[C@H]1CCC(=O)NCC[C@@H](C(N)=O)NC(=O)[C@H](CCCNC(=N)N)NC(=O)[C@@H](Cc2ccc(F)cc2)NC(=O)[C@H](CCCN)NC1=O [Example 9.61, Ac-Nle-cyclo(Glu-Orn-D-Phe(4-F)-Arg-Dab)-NH2] (Ac-[Nle]E[Orn][dPhe(4-F)]R[Dab]-NH2; lactam 2-6) | 102 |
| CCCC[C@H](NC(C)=O)C(=O)N[C@H]1CCC(=O)NCC[C@@H](C(N)=O)NC(=O)[C@H](CCCNC(=N)N)NC(=O)[C@@H](Cc2cccc(Cl)c2)NC(=O)[C@H](CCCN)NC1=O [Example 9.58, Ac-Nle-cyclo(Glu-Orn-D-Phe(3-Cl)-Arg-Dab)-NH2] (Ac-[Nle]E[Orn][dPhe(3-Cl)]R[Dab]-NH2; lactam 2-6) | 86 |
| CCCC[C@H](NC(C)=O)C(=O)N[C@H]1CCC(=O)NCC[C@@H](C(N)=O)NC(=O)[C@H](CCCNC(=N)N)NC(=O)[C@@H](Cc2ccccc2)NC(=O)[C@H](CCCN)NC1=O [Example 9.56, Ac-Nle-cyclo(Glu-Orn-D-Phe-Arg-Dab)-NH2] (Ac-[Nle]E[Orn][dF]R[Dab]-NH2; lactam 2-6) | 102 |
| CCCCC(=O)N[C@H]1CCC(=O)NCC[C@@H](C(=O)N[C@@H](Cc2c[nH]c3ccccc23)C(N)=O)NC(=O)[C@H](CCCNC(=N)N)NC(=O)[C@@H](Cc2ccccc2)NC(=O)[C@H](Cc2c[nH]cn2)NC1=O [Example 9.16, CH3—(CH2)3—C(═O)-cyclo(Glu-His-D-Phe-Arg-Dab)-Trp-NH2] | 89 |
| CCCC[C@H](NC(C)=O)C(=O)N[C@H]1CCC(=O)NCC[C@@H](C(N)=O)NC(=O)[C@H](CCCNC(=N)N)NC(=O)[C@@H](Cc2ccccc2)NC(=O)[C@H](Cc2c[nH]cn2)NC1=O [Example 9.32, Ac-Nle-cyclo(Glu-His-D-Phe-Arg-Dab)-NH2] | 85 |
| CCCC[C@H](NC(C)=O)C(=O)N[C@H]1CCC(=O)NCC[C@@H](C(=O)N[C@@H](Cc2c[nH]c3ccccc23)C(N)=O)NC(=O)[C@H](CCCNC(=N)N)NC(=O)[C@@H](Cc2ccccc2)NC(=O)[C@H](CCCCN)NC1=O [Example 9.40, Ac-Nle-cyclo(Glu-Lys-D-Phe-Arg-Dab)-Trp-NH2] | 108 |
| CCCC[C@H](NC(C)=O)C(=O)N[C@H]1CCC(=O)NCC[C@@H](C(=O)N[C@H](Cc2cccc3ccccc23)C(N)=O)NC(=O)[C@H](CCCNC(=N)N)NC(=O)[C@@H](Cc2ccccc2)NC(=O)[C@H](Cc2c[nH]cn2)NC1=O [Example 9.9, Ac-Nle-cyclo(Glu-His-D-Phe-Arg-Dab)-D-Nal 1-NH2] | 73 |
| CCCC[C@H](NC(C)=O)C(=O)N[C@H]1CC(=O)NC[C@@H](C(=O)N[C@@H](Cc2c[nH]c3ccccc23)C(N)=O)NC(=O)[C@H](CCCNC(=N)N)NC(=O)[C@@H](Cc2ccccc2)NC(=O)[C@H](Cc2c[nH]cn2)NC1=O [Example 9.4, Ac-Nle-cyclo(Asp-His-D-Phe-Arg-Dap)-Trp-NH2] (Ac-[Nle]DH[dF]R[Dap]W-NH2; lactam 2-6) | 88 |
| CCCC[C@H](NC(C)=O)C(=O)N[C@H]1CCC(=O)NCCCC[C@@H](C(=O)N[C@@H](Cc2c[nH]c3ccccc23)C(N)=O)NC(=O)[C@H](CCCNC(=N)N)NC(=O)[C@@H](Cc2ccccc2)NC(=O)[C@H](Cc2c[nH]cn2)NC1=O [Example 9.1, Ac-Nle-cyclo(Glu-His-D-Phe-Arg-Lys)-Trp-NH2] | 97 |
| CCCC[C@H](NC(C)=O)C(=O)N[C@H]1CCC(=O)NCC[C@@H](C(N)=O)NC(=O)[C@H](CCCNC(=N)N)NC(=O)[C@@H](Cc2ccc(C)cc2)NC(=O)[C@H](CCCN)NC1=O [Example 9.63, Ac-Nle-cyclo(Glu-Orn-D-Phe(4-Me)-Arg-Dab)-NH2] (Ac-[Nle]E[Orn][dPhe(4-Me)]R[Dab]-NH2; lactam 2-6) | 96 |
| CCCC[C@H](NC(C)=O)C(=O)N[C@H]1CSSC[C@@H](C(=O)N[C@@H](Cc2c[nH]c3ccccc23)C(N)=O)NC(=O)[C@H](CCCNC(=N)N)NC(=O)[C@@H](Cc2ccccc2)NC(=O)[C@H](Cc2c[nH]cn2)NC1=O [Example 9.5, Ac-Nle-cyclo(Cys-His-D-Phe-Arg-Cys)-Trp-NH2] | 87 |
| CCCC[C@H](NC(C)=O)C(=O)N[C@H]1CNC(=O)CCC(=O)NC[C@@H](C(=O)N[C@@H](Cc2c[nH]c3ccccc23)C(N)=O)NC(=O)[C@H](CCCNC(=N)N)NC(=O)[C@@H](Cc2ccccc2)NC(=O)[C@H](Cc2c[nH]cn2)NC1=O [Example 9.28, Ac-Nle-cyclo(Dap-His-D-Phe-Arg-Dap)-Trp-NH2] | 70 |
| CCCC[C@H](NC(C)=O)C(=O)N[C@H]1CCC(=O)NCC[C@@H](C(=O)N[C@@H](Cc2c[nH]c3ccccc23)C(N)=O)NC(=O)[C@H](CCCNC(=N)N)NC(=O)[C@@H](Cc2ccccc2)NC(=O)[C@H]2CCCN2C1=O [Example 9.66, Ac-Nle-cyclo(Glu-Pro-D-Phe-Arg-Dab)-Trp-NH2] | 97 |
| CCCC[C@H](NC(C)=O)C(=O)N[C@H]1CCC(=O)NCC[C@@H](C(N)=O)NC(=O)[C@H](CCCNC(=N)N)NC(=O)[C@@H](Cc2ccccc2)NC(=O)[C@@H]2CCCN2C1=O [Example 9.65, Ac-Nle-cyclo(Glu-Pro-D-Phe-Arg-Dab)-NH2] | 102 |
| CCCC[C@H](NC(C)=O)C(=O)N[C@H]1CCC(=O)NCC[C@@H](C(=O)N[C@@H](CCCCN)C(N)=O)NC(=O)[C@H](CCCNC(=N)N)NC(=O)[C@@H](Cc2ccccc2)NC(=O)[C@H](Cc2c[nH]cn2)NC1=O [Example 9.39, Ac-Nle-cyclo(Glu-His-D-Phe-Arg-Dab)-Lys-NH2] | 91 |
